Literature values as cited in patent publication US11166956B2, “Combinations of PDE1 inhibitors and NEP inhibitors” (INTRA-CELLULAR THERAPIES, INC., priority 2014, dated 2021).
Each block holds one compound with its values, some of them ahead of it.

What was measured:
NEP = NEP (Homo sapiens, UniProt P08473)
NEP and ACE = details: clinical studies

Chain of NEP (P08473 whole entry): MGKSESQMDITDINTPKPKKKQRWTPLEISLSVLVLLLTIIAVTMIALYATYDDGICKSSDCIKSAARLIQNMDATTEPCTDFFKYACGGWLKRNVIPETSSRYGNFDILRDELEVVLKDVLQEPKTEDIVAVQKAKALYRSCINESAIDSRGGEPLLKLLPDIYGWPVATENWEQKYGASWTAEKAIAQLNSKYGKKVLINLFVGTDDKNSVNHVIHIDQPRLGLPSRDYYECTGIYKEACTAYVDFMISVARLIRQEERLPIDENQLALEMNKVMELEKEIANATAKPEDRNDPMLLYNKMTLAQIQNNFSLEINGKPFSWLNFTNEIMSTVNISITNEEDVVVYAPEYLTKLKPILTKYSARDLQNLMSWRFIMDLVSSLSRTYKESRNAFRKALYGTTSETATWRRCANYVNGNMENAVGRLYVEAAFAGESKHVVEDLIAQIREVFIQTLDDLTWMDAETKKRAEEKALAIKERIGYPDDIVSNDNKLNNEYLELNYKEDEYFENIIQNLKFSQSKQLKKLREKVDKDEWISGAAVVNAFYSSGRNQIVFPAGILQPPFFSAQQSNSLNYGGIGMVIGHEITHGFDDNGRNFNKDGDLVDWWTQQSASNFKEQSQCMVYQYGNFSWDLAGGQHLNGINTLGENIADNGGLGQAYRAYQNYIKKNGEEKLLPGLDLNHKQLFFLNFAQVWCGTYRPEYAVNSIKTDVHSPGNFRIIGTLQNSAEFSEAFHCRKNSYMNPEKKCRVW

plasma ANP and cGMP levels (NEP; in vivo): dose-dependent increase
Compound: COCCOC[C@H](CC1(C(=O)N[C@H]2CC[C@@H](C(=O)O)CC2)CCCC1)C(=O)Oc1ccc2c(c1)CCC2 [Candoxatril]
blood-pressure lowering effect (NEP; in vivo): does not produce a stable blood-pressure lowering effect
levels of endothelin (NEP; patients with heart failure): increase levels of endothelin significantly

Compound: COc1cc2c(c(O)c1OC)C(=O)C[C@@H](c1cc(O)ccc1O)O2 [dioclein]
vasodilation (PDE1): induce PKG-dependent vasodilation

Compound: O=C(N[C@H]1CCS[C@H]2CCC[C@@H](C(=O)O)N2C1=O)[C@@H](S)Cc1ccccc1 [omapatrilat]
incidence of angioedema (NEP and ACE): severe incidence of angioedema
